From US11352350B2, “IRAK degraders and uses thereof” (Kymera Therapeutics, Inc., priority 2018, dated 2022)
Like-named read-outs stand apart in the source and are kept apart here.

What was measured:
OCI-LY10 = assay: CTG Cell Viability Assay - OCI-LY10; assay type: cell-based, human; conditions: OCI-LY10, 4 days, read-out: CTG Cell Viability Assay - OCI-LY10: Average external-IC50
Method in brief: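 OCI-LY10 cells exposed to 9-dose, 1:3 dilutions from 10 μM top (0.2% DMSO) for 4 days at 37° C, 5% CO2. Viability by CellTiter-Glo luminescence; IC50 from three-parameter logistic fit.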

IRAK4 [1] = target: T1, IRAK4 (Homo sapiens (Human), UniProt Q9NWZ3); assay: hPBMC IRAK4 degradation flow assay; assay type: cell-based; conditions: hPBMC monocyte
Procedure: hPBMC IRAK4 degradation flow assay. Frozen PBMCs were thawed into RPMI with 10% FBS and allowed to recover. On the same day as thawed, PBMCs were plated in 96 well plate, 90 uL per well. Compound plates were prepared and a 10 point, 5-fold dilution was performed with a final DMSO concentration of 0.1%. Compound 10 μL per well was added, sealed and incubated at 37° C., 5% C02 for 20 hours (for 4 hour treatment, compounds were prepared and added the following day). […] Cells were spun down and washed two times with PBS/0.5% BSA, aspirated to pellet and placed into −80° C. freezer until further processing for flow. On the flow run day, PBMC plates were thawed and samples were transferred to PCR plates. The pre-perm staining cocktail (CD3 Ax488/CD8 BUV805/CD14 BUV395/CD16/56 BV711/CD19 BV785) was added to samples and incubated for 30 minutes at room temperature. Samples were washed two times and permeabilized with methanol for 10 minutes at 4° C. […] Samples were washed two times with PBS/BSA and run on a BD LSRFortessa. Mononuclear cells are gated by SSCH/FSCH and single cells. Monocytes are then gated through CD14 positive gate and lymphocytes are gated through CD14 negative gate. To determine absolute DC50s and max degradation values, MFI values were normalized to DMSO max and 20 hour 10 μM min control. Twenty hour dose curves were calculated using a 4 parameter logistic regression curve fit, no constraints (Top doses were removed if hook effects were observed and the bottom was constrained to 0).

IRAK4 [2] = target: T1, IRAK4; assay: IRAK4 MSD degradation in OCI-LY10; assay type: cell-based
Method in brief: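 OCI-LY10 cells treated with 8-point 1:3 dilutions (top 1 to 10 μM final) for 4 to 24 h at 37° C. Lysate IRAK4 measured by MSD sandwich immunoassay (2H9 capture, Y279 detection, SULFO-TAG anti-rabbit). DC50 from three-parameter logistic fit.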

[3] = 20 hrs, read-out: IRAK4 degradation in hPBMC monocyte: DC50
[4] = OCI-LY10, 4 hrs, read-out: IRAK4 MSD degradation in OCI-LY10 at 4 hrs: DC50
[5] = 20 hr, flow assay, read-out: IRAK4 degradation in hPBMC monocyte at 20 hr: Average external Abs DC50
[6] = OCI-LY10, 4 hrs, MSD, read-out: IRAK4 MSD degradation in OCI-LY10 at 4 hrs: Average external-Abs DC50

T1 sequence (Q9NWZ3 whole entry): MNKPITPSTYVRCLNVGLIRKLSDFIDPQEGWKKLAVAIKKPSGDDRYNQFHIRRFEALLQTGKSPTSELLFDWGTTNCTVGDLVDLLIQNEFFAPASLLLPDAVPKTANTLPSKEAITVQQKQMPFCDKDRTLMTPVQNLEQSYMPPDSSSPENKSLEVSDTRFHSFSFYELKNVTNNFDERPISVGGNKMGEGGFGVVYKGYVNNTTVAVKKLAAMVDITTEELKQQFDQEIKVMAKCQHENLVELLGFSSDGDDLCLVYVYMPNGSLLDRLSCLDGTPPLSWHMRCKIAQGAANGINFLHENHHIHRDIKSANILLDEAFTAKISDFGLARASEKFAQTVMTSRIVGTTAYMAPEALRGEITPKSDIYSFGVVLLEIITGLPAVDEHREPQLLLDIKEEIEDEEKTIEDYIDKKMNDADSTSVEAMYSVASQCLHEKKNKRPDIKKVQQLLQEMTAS

Row | Compound | DC50 (IRAK4 [1]; [3]) [nM] | DC50 (IRAK4 [2]; [4]) [nM] | further results
1 | Cc1ccc(-c2nn([C@H]3CC[C@H](CN4CCC(OCCCc5cccc6c5n(C)c(=O)n6C5CCC(=O)NC5=O)CC4)CC3)cc2NC(=O)c2cnn3ccc(N4C[C@H]5C[C@@H]4CO5)nc23)nc1 (stereo partly drawn) [I-484] | 100 to 1000 | 100 to 1000 | IC50 (OCI-LY10; Homo sapiens, OCI-Ly10, 96 h): > 1000 nM
2 | Cn1c(=O)n(C2CCC(=O)NC2=O)c2cccc(C#CCOC3CCN(C[C@H]4CC[C@H](n5cc(NC(=O)c6cnn7ccc(N8CCOC(C)(C)C8)nc67)c(C(F)F)n5)CC4)CC3)c21 (stereo partly drawn) [I-533] | < 10 | 10 to 100 | –
3 | CN(CCCOCCCNc1cccc2c1C(=O)N(C1CCC(=O)NC1=O)C2=O)Cc1ccc(-n2cc(NC(=O)c3cnn4ccc(N5C[C@H]6C[C@@H]5CO6)nc34)c(C(F)F)n2)cc1 (stereo partly drawn) [I-320] | – | – | IC50 (OCI-LY10): > 1000 nM; DC50 (IRAK4 [1]; [5]): 10 to 100 nM; DC50 (IRAK4 [2]; [6]): > 1000 nM
4 | CC(C)(O)c1cc2nn([C@H]3CC[C@H](CN4CCC(COCCCNc5cccc6c5C(=O)N(C5CCC(=O)NC5=O)C6=O)CC4)CC3)cc2cc1NC(=O)c1cccc(C(F)(F)F)n1 (stereo partly drawn) [I-376] | – | – | IC50 (OCI-LY10; Homo sapiens, OCI-Ly10, 96 h): 100 to 500 nM; DC50 (IRAK4 [1]; [5]): < 10 nM; DC50 (IRAK4 [2]; [6]): 10 to 100 nM; DC50 (IRAK4 [2]; OCI-LY10, 24 hrs, MSD, read-out: IRAK4 MSD degradation in OCI-LY10 at 24 hrs: Average external-Abs DC50): 10 to 100 nM
5 | Cn1c(=O)n(C2CCC(=O)NC2=O)c2cccc(CCCN3CCC4(CC3)CCN(C(=O)C3CCC(n5cc(NC(=O)c6cnn7ccc(N8C[C@H]9C[C@@H]8CO9)nc67)c(C(F)F)n5)CC3)CC4)c21 (stereo partly drawn) [I-435] | – | – | DC50 (IRAK4 [1]; [5]): < 10 nM
6 | O=C1CCC(N2C(=O)c3cccc(NCC4CCN(C[C@H]5CC[C@H](n6cc(NC(=O)c7cnn8ccc(N9C[C@H]%10CC9CO%10)nc78)c(C(F)F)n6)CC5)CC4)c3C2=O)C(=O)N1 (stereo partly drawn) [I-442] | 100 to 1000 | 100 to 1000 | IC50 (OCI-LY10; Homo sapiens, OCI-Ly10, 96 h): < 50 nM
7 | Cn1c(=O)n(C2CCC(=O)NC2=O)c2cccc(CCCOC3CCN(C[C@H]4CC[C@H](n5cc(NC(=O)c6cnn7ccc(N8CCOC9(CCC9)C8)nc67)c(C(F)F)n5)CC4)CC3)c21 (stereo partly drawn) [I-542] | < 10 | 10 to 100 | –
8 | Cn1c(=O)n(C2CCC(=O)NC2=O)c2cccc(CCCC3CCN(C[C@H]4CC[C@H](C5N=C(NC(=O)c6cnn7ccc(N8C[C@H]9CC[C@@H](C8)O9)nc67)C(C(F)F)=N5)CC4)CC3)c21 (stereo partly drawn) [I-535] | < 10 | < 10 | –
9 | C[C@@H]1CC(OCCc2cccc3c2n(C)c(=O)n3C2CCC(=O)NC2=O)C[C@H](C)N1C[C@H]1CC[C@H](n2cc(NC(=O)c3cnn4ccc(N5C[C@H]6C[C@@H]5CO6)nc34)c(C(F)F)n2)CC1 (stereo partly drawn) [I-558] | < 10 | – | IC50 (OCI-LY10; Homo sapiens, OCI-Ly10, 96 h): > 1000 nM
10 | Cn1c(=O)n(C2CCC(=O)NC2=O)c2cccc(CCCOC3CCN(C[C@H]4CC[C@H](n5ncc(NC(=O)c6cnn7ccc(N8CCOCC8)nc67)c5C(F)F)CC4)CC3)c21 (stereo partly drawn) [I-468] | 100 to 1000 | 100 to 1000 | –
11 | Cn1c(=O)n(C2CCC(=O)NC2=O)c2cccc(CN3CC4(CCN(C(=O)[C@H]5CC[C@H](n6cc(NC(=O)c7cnn8ccc(N9C[C@H]%10C[C@@H]9CO%10)nc78)c(C(F)F)n6)CC5)CC4)C3)c21 (stereo partly drawn) [I-429] | – | – | DC50 (IRAK4 [1]; [5]): < 10 nM
12 | C[C@@H]1CN(c2ccn3ncc(C(=O)Nc4cn([C@H]5CC[C@H](CN6CCC(OCC#Cc7cccc8c7n(C)c(=O)n8C7CCC(=O)NC7=O)CC6)CC5)nc4C(F)F)c3n2)C[C@H](C)O1 (stereo partly drawn) [I-531] | < 10 | 10 to 100 | –
13 | C[C@H]1CN(c2ccn3ncc(C(=O)Nc4cn([C@H]5CC[C@H](CN6CCC(OCC#Cc7cccc8c7n(C)c(=O)n8C7CCC(=O)NC7=O)CC6)CC5)nc4C(F)F)c3n2)C[C@H](C)O1 (stereo partly drawn) [I-536] | < 10 | 10 to 100 | –
14 | CN(CCCC#Cc1ccc2c(c1)n(C)c(=O)n2C1CCC(=O)NC1=O)C[C@H]1CC[C@H](n2cc(NC(=O)c3cnn4ccc(N5C[C@H]6C[C@@H]5CO6)nc34)c(C(F)F)n2)CC1 (stereo partly drawn) [I-546, 5-((1R,4R)-2-oxa-5-azabicyclo[2.2.1]heptan-5-yl)-N-(3-(difluoromethyl)-1-((1r,4R)-4-(((5-(1-(2,6-dioxopiperidin-3-yl)-3-methyl-2-oxo-2,3-dihydro-1H-benzo [d]imidazol-5-yl)pent-4-yn-1-yl)(methyl)amino)methyl)cyclohexyl)-1H-pyrazol-4-yl)pyrazolo[1,5-a] pyrimidine-3-carboxamide] | 10 to 100 | 100 to 1000 | –
15 | Cn1c(=O)n(C2CCC(=O)NC2=O)c2cccc(C#CCOC3CCN(C[C@H]4CC[C@H](n5cc(NC(=O)c6cnn7ccc(N8CCOC9(CCC9)C8)nc67)c(C(F)F)n5)CC4)CC3)c21 (stereo partly drawn) [I-541] | < 10 | 10 to 100 | –
16 | CN(CCCC#Cc1cccc2c1n(C)c(=O)n2C1CCC(=O)NC1=O)C[C@H]1CC[C@H](n2cc(NC(=O)c3cnn4ccc(N5C[C@H]6C[C@@H]5CO6)nc34)c(C(F)F)n2)CC1 (stereo partly drawn) [I-550, 5-((1R,4R)-2-oxa-5-azabicyclo[2.2.1]heptan-5-yl)-N-(3-(difluoromethyl)-1-((1r,4R)-4-(((5-(1-(2,6-dioxopiperidin-3-yl)-3-methyl-2-oxo-2,3-dihydro-1H-benzo [d]imidazol-4-yl)pent-4-yn-1-yl)(methyl)amino)methyl)cyclohexyl)-1H-pyrazol-4-yl)pyrazolo[1,5-a] pyrimidine-3-carboxamide] | < 10 | 10 to 100 | –
17 | CN1C(=O)C(C2CCC(=O)NC2=O)c2cc(C#CCOC3CCN(C[C@H]4CC[C@H](C5N=C(NC(=O)c6cnn7ccc(N8C[C@H]9C[C@@H]8CO9)nc67)C(C(F)F)=N5)CC4)CC3)ccc21 (stereo partly drawn) [I-548] | 100 to 1000 | 100 to 1000 | –
18 | Cn1c(=O)n(C2CCC(=O)NC2=O)c2cccc(C(=O)N3CCC(OC[C@H]4CC[C@H](n5cc(NC(=O)c6cnn7ccc(N8C[C@H]9C[C@@H]8CO9)nc67)c(C(F)F)n5)CC4)CC3)c21 (stereo partly drawn) [I-427] | – | – | DC50 (IRAK4 [1]; [5]): 100 to 1000 nM
19 | Cn1c(=O)n(C2CCC(=O)NC2=O)c2cccc(C#CCC3CCN(C[C@H]4CC[C@H](C5N=C(NC(=O)c6cnn7ccc(N8C[C@H]9CC[C@@H](C8)O9)nc67)C(C(F)F)=N5)CC4)CC3)c21 (stereo partly drawn) [I-534] | < 10 | 10 to 100 | –
20 | Cn1c(=O)n(C2CCC(=O)NC2=O)c2cccc(CCCC3CCN(C[C@H]4CC[C@H](C5N=C(NC(=O)c6cnn7ccc(N8CCOC9(CCC9)C8)nc67)C(C(F)F)=N5)CC4)CC3)c21 (stereo partly drawn) [I-538] | < 10 | 10 to 100 | –
21 | C[C@@H]1CN(c2ccn3ncc(C(=O)Nc4cn([C@H]5CC[C@H](CN6CCC(OCC#Cc7cccc8c7n(C)c(=O)n8C7CCC(=O)NC7=O)CC6)CC5)nc4C(F)F)c3n2)C[C@@H](C)O1 (stereo partly drawn) [I-527] | < 10 | 10 to 100 | –
22 | C[C@H](/C=C/c1cccc2c1n(C)c(=O)n2C1CCC(=O)NC1=O)OC1CCN(C[C@H]2CC[C@H](n3cc(NC(=O)c4cnn5ccc(N6C[C@H]7C[C@@H]6CO7)nc45)c(C(F)F)n3)CC2)CC1 (stereo partly drawn) [I-559] | < 10 | – | IC50 (OCI-LY10; Homo sapiens, OCI-Ly10, 96 h): > 1000 nM
23 | C[C@@H](CCc1cccc2c1n(C)c(=O)n2C1CCC(=O)NC1=O)OC1CCN(C[C@H]2CC[C@H](n3cc(NC(=O)c4cnn5ccc(N6C[C@H]7C[C@@H]6CO7)cc45)c(C(F)F)n3)CC2)CC1 (stereo partly drawn) [I-545] | < 10 | < 10 | –
24 | Cn1c(=O)n(C2CCC(=O)NC2=O)c2cccc(CCCOC3CCN(C[C@H]4CC[C@H](n5cc(NC(=O)c6cnn7ccc(N8CCOC(C)(C)C8)nc67)c(C(F)F)n5)CC4)CC3)c21 (stereo partly drawn) [I-539] | < 10 | 10 to 100 | –
25 | Cn1c(=O)n(C2CCC(=O)NC2=O)c2cccc(CCCCC3CCN(Cc4ccc(-n5cc(NC(=O)c6cnn7ccc(N8C[C@H]9C[C@@H]8CO9)nc67)c(C(F)F)n5)cc4)CC3)c21 (stereo partly drawn) [I-436] | – | – | DC50 (IRAK4 [1]; [5]): 100 to 1000 nM
26 | Cn1c(=O)n(C2CCC(=O)NC2=O)c2cccc(CCCOCCCC(CNC[C@H]3CC[C@H](n4cc(NC(=O)c5cnn6ccc(N7C[C@H]8C[C@@H]7CO8)nc56)c(C(F)F)n4)CC3)C(=O)O)c21 (stereo partly drawn) [I-470] | 100 to 1000 | 100 to 1000 | –
27 | CN(C[C@H]1OC[C@H](n2cc(NC(=O)c3cnn4ccc(N5C[C@H]6C[C@@H]5CO6)nc34)c(C(F)F)n2)CO1)C1CCN(Cc2cccc3c2n(C)c(=O)n3C2CCC(=O)NC2=O)CC1 (stereo partly drawn) [I-507, N-[3-(difluoromethyl)-1-[2-[[[1-[[1-(2,6-dioxo-3-piperidyl)-3-methyl-2-oxo-benzimidazol-4-yl]methyl]-4-piperidyl]-methyl-amino]methyl]-1,3-dioxan-5-yl]pyrazol-4-yl]-5-[(1R,4R)-2-oxa-5-azabicyclo [2.2.1]heptan-5-yl] pyrazolo[1,5-a] pyrimidine-3-carboxamide] | < 10 | – | –
